From paper PMC5869189 (Frontiers in Immunology, 2018)

Test system: PBMC from healthy, seropositive donors
Assay type: cell-based, human

Sequence	% Responders [%]	Median SFC/10^6 PBMCs (IFN-g)
AGAILGAVVTGVALVAAAFV [BPSS1532_P44]	100.0	156
TELAQAGDIACLALQAARTG [BPSS0530_P10]	93.0	280
LLVVEPGATLDTDGERATLD [BPSS1599_P31]	83.3	151
NSYTSQIAQLNEQIASASSQ [BPSL0280_P18]	93.1	523
YLVSKGVPANKVYTEGKGKR [BPSL2522_P17]	82.9	312
SDDPLPPPLETELAQAGDIA [BPSS0530_P9]	90.7	283
SLSRRNELRAEAVELAKKLK [BPSS1599_P3]	89.6	156
KVYTEGKGKRNPVTGNTCKQ [BPSL2522_P18]	94.3	288
NASRTVSLDPRFIPPLLDTR [BPSS0530_P19]	97.7	334
NLAQQAAALPASPTWRAYRL [BPSS1599_P38]	89.6	125
LAGVQVVQSNGNYSVFLSGG [BPSL0280_P22]	93.1	464
LERLHTDYAWGGWNVVIGEP [BPSS1599_P14]	95.8	157
ELVGLLGRLSVLPGVDEELA [BPSS0530_P28]	88.4	260
LASRYRAVSTEVPDLAVGLD [BPSS0530_P13]	97.7	267
MSAAAQDRSIGAAQMTAAIA [BPSS1531_P20]	91.4	225
MLRQALARVIETPVLPLRFE [BPSS0530_P32]	95.3	316
KGELIDQLGVRDKEAGVALR [BPSL2096_P12]	97.1	317
LRVERIAYQNNQWTLEGVLY [BPSS1599_P42]	91.7	139
TEQPDGSLKLNVPSSVTFAT [BPSL0999_P10]	93.6	382
FETVTEASFPGKWKIIYFYP [BPSL2096_P4]	88.2	305
TQLLARLQWLDAAAKLERLL [BPSS1599_P35]	93.8	145

Sequence	% Responders [%]	Median SFC/10^6 PBMCs (IFN-g)
LEGAFYNGRRQPAPNWLGAF [BPSS1599_P9]	85.4	126
IRLRADTLMGAELAARPEYR [BPSS1525_P19]	82.1	197
PLLNDLATTLNQNPQITASV [BPSL0999_P13]	91.5	357
ASTSAQRVLSTGGGVADLIE [BPSS0530_P23]	90.7	267
CMDPATRAGNVRPAFIEALG [BPSS1525_P14]	82.1	200
CIGKIVGWVITAVSFAAAAF [BPSS1532_P35]	87.1	172
GALGGLLAFRSQTLDPAQAQ [BPSL0280_P29]	93.1	463
ELQSTLRVRLASTSAQRVLS [BPSS0530_P22]	88.4	247
GPEMAFGDVELASRYRAVST [BPSS0530_P12]	97.7	308
NANLGGIAPPEFVRAIDVPG [BPSS1599_P40]	89.6	137
EAEEREAALERVRAELAARQ [BPSS1599_P23]	91.7	147
ELERQGFQNFQPKRLDDLLP [BPSS1599_P16]	83.3	142
AATAVMAASASAQSVPASRQ [BPSL2522_P2]	88.6	273
QPKRLDDLLPRRGGRPRTER [BPSS1599_P17]	83.3	141
APGTPRRLTIETGQLVTRLC [BPSS0530_P15]	93.0	255
GVAAAGYANTRDGFAPGHLS [BPSS1599_P6]	85.4	129
PEQGPRAPLANLAQQAAALP [BPSS1599_P37]	93.8	147
WARNGSNVRYLLVVEPGATL [BPSS1599_P30]	91.7	155
IFAFSAAMPAEKLRQLLPQQ [BPSS0530_P36]	95.3	298
AGTVMNVGNQVSQAAGGIVV [BPSS1532_P54]	80.6	189
AHLVLRSLIDELQSTLRVRL [BPSS0530_P21]	93.0	258

Sequence	% Responders [%]	Median SFC/10^6 PBMCs (IFN-g)
IVEFAKLAKQFEERDAVLLG [BPSL2096_P7]	85.3	304
TPLADDSVVRTQLLARLQWL [BPSS1599_P34]	97.9	147
VGYTDSTGSAAHNQTLSQNR [BPSL0999_P15]	97.9	367
RDLAVSKLSQLAGVQVVQSN [BPSL0280_P21]	93.1	493
RDGFAPGHLSLGAMVSRAIA [BPSS1599_P7]	95.8	132
QPAPNWLGAFALPDGRWAYF [BPSS1599_P10]	95.8	189
AAQKAIDAAKSQVANDNAVA [BPSS1531_P40]	85.7	198
VPLTAPTANDTPLADDSVVR [BPSS1599_P33]	83.3	147
IGSDKYNDRLSLRRAQAVKS [BPSL2522_P15]	97.1	290
VRPAFIEALGDAARATGLPG [BPSS1525_P15]	89.7	220
REPKKQDICYATQNRQDAVK [BPSL0919_P21]	94.6	422
LGAMVSRAIALEGAFYNGRR [BPSS1599_P8]	89.6	99
KLVDLQLPGARLNALPNPPR [BPSS0530_P39]	86.0	221
NRRVEIYLRAPQAAQ [BPSL0999_P21]	93.6	348
RVEVEVVGTQEVQKTTVPAQ [BPSL2522_P23]	97.1	361
GAAQMTAAIAGGALQATTSL [BPSS1531_P21]	97.1	225
QIPYYAQSTYFEVESTDPFW [BPSS0530_P41]	81.4	292
DAARATGLPGADKQGVFTPS [BPSS1525_P16]	82.1	197
RLGLRHARGVFQDGTAFSLP [BPSS0530_P7]	90.7	211
KQTLAGSAMALRIVGDFPDL [BPSS0530_P43]	100.0	299
APDRRVEVEVVGTQEVQKTT [BPSL2522_P21]	100.0	273

Sequence	% Responders [%]	Median SFC/10^6 PBMCs (IFN-g)
DLDQDGLGLGRLGLRHARGV [BPSS0530_P6]	90.7	288
FDLMVLRIDRGVAAAGYANT [BPSS1599_P5]	89.6	129
SQVANDNAVAAQVAGNLRT [BPSS1531_P41]	80.0	197
NQWTLEGVLYAK [BPSS1599_P43]	81.3	120
ECTPGTAHYAWARNGSNVRY [BPSS1599_P29]	97.9	162
SQKITYQADTLFDFDKAVLK [BPSL2522_P10]	91.4	297
MSAQVIQIGRQRFVGGLFWQ [BPSS1599_P1]	81.3	189
TPEIRQDAEFGRQVYEATLC [BPSS1525_P11]	84.6	184
GAGIGALAGGGKGAAIGAGV [BPSL0999_P5]	80.9	346
HAEQALELRGINKPVLSNDE [BPSS1531_P26]	85.7	219
FAYWHHRAKVEAEEREAALE [BPSS1599_P22]	95.8	169
HFQQLERHLAHQASLRLGQT [BPSS0530_P3]	83.7	253
ALPDGRWAYFAVRDHAFMPN [BPSS1599_P11]	95.8	148
AWAERFDRYLDDADALVASA [BPSL2504_P8]	91.4	317
DQYAITPAFTPLLNDLATTL [BPSL0999_P12]	83.0	358
APGGWRLERYECTPGTAHYA [BPSS1599_P28]	87.5	163
LSPRAALIAATAACVVLGGA [BPSS1599_P20]	97.9	150
SNHGWGFTLLDLDQDGLGLG [BPSS0530_P5]	93.0	224
WKSQLRSDEVALPIARVAGR [BPSS0530_P17]	97.7	274
GVALVAAAFVGASAVKAVAS [BPSS1532_P45]	83.9	142
WWALRPVERRLSPRAALIAA [BPSS1599_P19]	95.8	169
